Tests used:
[1] = Spatial drug imaging by MALDI-MSI (drug distribution in tissues); settings: 10 mg/kg, 30'; DHB matrix; 12 µm-thick sections, MALDI MSI 12 Tesla FT-ICR, 100 µm spatial resolution; Agar Lab
[2] = test system: PI3K pathway; design: method as in Wen et al. 2019b; settings: ref Wen et al. 2019b, cited from earlier work
[3] = test system: CNS metastases; design: method as in Long et al. 2012, Ng et al. 2022; settings: ref Long et al. 2012, Ng et al. 2022; cited from earlier work
[4] = design: method as in Mittapalli et al. 2013; settings: ref Mittapalli et al. 2013; cited from earlier work
[5] = test system: glioblastoma; design: method as in Iorgulescu et al. 2021; settings: preclinical studies, ref Iorgulescu et al. 2021; cited from earlier work
[6] = cited from earlier work
[7] = cited from earlier work; remark: listed apart in the source
[8] = test system: recurrent glioblastoma; settings: cited from earlier work
[9] = test system: newly diagnosed glioblastoma; design: method as in Gilbert et al. 2014; settings: patients with newly diagnosed glioblastoma; ref Gilbert et al. 2014; cited from earlier work

Compound: CNCc1ccc(-c2[nH]c3cc(F)cc4c3c2CCNC4=O)cc1 [Rucaparib]
- Drug detection on brain by MALDI or LESA [1]: Drug not detected on brain by MALDI or LESA

Compound: Nc1cc(C(F)(F)F)c(-c2cc(N3CCOCC3)nc(N3CCOCC3)n2)cn1 [buparlisib]
- inhibition of the PI3K pathway (molecular response) ([2]; pharmacokinetic measures paired with molecular response): not potent enough to effectively inhibit the PI3K pathway
- unbound tumor-to-plasma ratio [2]: high

Compound: CC(C)(C)c1nc(-c2cccc(NS(=O)(=O)c3c(F)cccc3F)c2F)c(-c2ccnc(N)n2)s1 [dabrafenib]
- response in patients with CNS metastases [3]: clinically significant response rates
- distribution across an intact BBB [4]: limited distribution across an intact BBB

Compound: C[C@@H]1C[C@H]2[C@@H]3CCC4=CC(=O)C=C[C@]4(C)[C@@]3(F)[C@@H](O)C[C@]2(C)[C@@]1(O)C(=O)CO [dexamethasone]
- effect on clinical benefit of immune checkpoint blockade [5]: limit the clinical benefit of immune checkpoint blockade in glioblastoma in a dose-dependent manner

Compound: CN(Cc1cnc2nc(N)nc(N)c2n1)c1ccc(C(=O)N[C@@H](CCC(=O)O)C(=O)O)cc1 [methotrexate]
- therapeutic window, intrathecal treatment ([6]; intrathecal treatment of hematological malignancies, ref Kwong et al. 2009, Clement & Holle 2017): narrow therapeutic window

Compound: S=P(N1CC1)(N1CC1)N1CC1 [thiotepa]
- Kp,uu (unbound drug levels in blood and cerebrospinal fluid) ([7]; blood vs cerebrospinal fluid, ref Heideman et al. 1989, 1993): ~ 1
- half-life ([7]; rapidly metabolized, ref Heideman et al. 1989, 1993): less than 2 hours
- dose-limiting toxicity ([7]; ref Dunkel et al. 1998): myelosuppression
- apparent brain permeability (Papp) ([7]; ref Heideman et al. 1989, 1993): high

Compound: CC[C@]1(O)C[C@H]2CN(CCc3c([nH]c4ccccc34)[C@@](C(=O)OC)(c3cc4c(cc3OC)N(C=O)[C@H]3[C@@](O)(C(=O)OC)[C@H](OC(C)=O)[C@]5(CC)C=CCN6CC[C@]43[C@@H]65)C2)C1 [vincristine]
- toxicity of inadvertent administration into the CSF ([6]; ref Dyer 2001, Chotsampancharoen et al. 2016): fatalities due to severe neurotoxicity

Compound: bevacizumab
- delivery of radiolabeled temozolomide as measured by PET imaging ([8]; in vivo): decreased delivery of radiolabeled temozolomide
- vascular permeability ([8]; not told): decrease vascular permeability
- overall survival [9]: no difference

— paper PMC10846865, “The Blood-Brain Barrier: Implications for Experimental Cancer Therapeutics” (Annual review of cancer biology, 2023)
